One block for each compound: values may come before it.
Legend:
Cyp1a/CYP1A enzymes = experiment: TCDD treatment of mice: hepatic total P450, EROD and MROD induction; assay type: in vivo, mouse; conditions: for increase of total hepatic cytochrome P450: TCDD 10 µg/kg i.p., 48 hours
Procedure: Mice were given a single intraperitoneal dose of TCDD (10 µg/kg) or vehicle control (corn oil) and then euthanized 48 hours after the dosing using a rising concentration of CO2.
Microsomal fractions were prepared as previously described ([Henderson et al., 2019]). In brief, fresh liver samples were homogenized in ice-cold SET(Sucrose-EDTA-Tris) buffer (0.25 M sucrose, 5 mM EDTA, 20 mM Tris-HCL, pH 7.4; 9 ml buffer/g liver) and centrifuged at 2000 rpm (Sorvall RTH-250, 10 minutes, 4°C). The supernatant was centrifuged (12,000 rpm, Sorvall SS-34 rotor, 20 minutes, 4°C), the resulting supernatant was centrifuged (∼30,000 rpm, Sorvall TFT-45.6, 90 minutes, 4°C) (ThermoFisher Scientific, UK), and microsomal pellets were resuspended in ice-cold SET buffer and stored at −70°C.
Microsomal protein concentration fractions were measured using a modification of a previously described method ([Lowry et al., 1951]) and total hepatic microsomal P450 as previously described ([Omura and Sato, 1964]).
A mixture of ER (0.93 μM) or MR (0.46 μM) and liver microsomes (0.004–0.27 mg protein/ml) in 100 mM potassium phosphate buffer (pH 7.4) supplemented with MgCl2 (3.3 mM) was incubated at 37°C for 5 minutes before the reaction was initiated by injection of NADPH (final concentration, 1.2 mM). […] Activities in duodenum, ileum, jejunum, colon, lung, kidney, spleen, heart, brain, and testis microsomes were measured as described earlier except for the following adjustments: MR concentration was 1 μM, concentration of total microsomal protein in the reaction was in the range of 0.07–0.43 mg/ml, and amount of resorufin added to calculate the reaction product concentration was 40 pmol.

[1] = tested on: EROD activity, non-Cyp1a component of the liver microsomes; experiment: in vitro; conditions: mouse, pH 7.4
Procedure: (§1) Protein enzyme/concentrations were 3.46 pmol/ml for recombinant human CYP1A1, 10.8 pmol/ml for recombinant human CYP1A2, 0.05 mg protein/ml for liver microsomes from TCDD-treated hCYP1A1/1A2 mice, and 0.25 mg protein/ml for liver microsomes from TCDD-treated Cyp1 KO mice and vehicle-treated hCYP1A1/1A2 mice. Where needed, total protein concentration in the reaction mixtures was adjusted using Control Bactosomes (Cypex), so all reactions (including those with the recombinant cytochrome P450s) were carried out at a total protein concentration of 0.25 mg protein/ml. Generation of fluorescent product was registered in a kinetic mode (excitation filter, 530 nm; emission filter, 584 nm). Slopes of the linear part of the kinetic curves were calculated using Ascent Software version 2.4.1 (Labsystems). For each well with the reaction medium, there was a control well containing the reaction mixture with resorufin (40 pmol). Before addition of NADPH to the reaction wells, fluorescence was recorded both from the reaction and from the control wells. The average fluorescence was calculated, and the difference between wells with and without resorufin was used for the conversion of the relative fluorescence units to the picomoles of the reaction product.

recombinant human CYP1A1 [2] = target: T1, recombinant human CYP1A1 (Homo sapiens, UniProt P04798); experiment: EROD by recombinant human CYP1A1 with and without quinidine
T1 sequence (P04798 1-512): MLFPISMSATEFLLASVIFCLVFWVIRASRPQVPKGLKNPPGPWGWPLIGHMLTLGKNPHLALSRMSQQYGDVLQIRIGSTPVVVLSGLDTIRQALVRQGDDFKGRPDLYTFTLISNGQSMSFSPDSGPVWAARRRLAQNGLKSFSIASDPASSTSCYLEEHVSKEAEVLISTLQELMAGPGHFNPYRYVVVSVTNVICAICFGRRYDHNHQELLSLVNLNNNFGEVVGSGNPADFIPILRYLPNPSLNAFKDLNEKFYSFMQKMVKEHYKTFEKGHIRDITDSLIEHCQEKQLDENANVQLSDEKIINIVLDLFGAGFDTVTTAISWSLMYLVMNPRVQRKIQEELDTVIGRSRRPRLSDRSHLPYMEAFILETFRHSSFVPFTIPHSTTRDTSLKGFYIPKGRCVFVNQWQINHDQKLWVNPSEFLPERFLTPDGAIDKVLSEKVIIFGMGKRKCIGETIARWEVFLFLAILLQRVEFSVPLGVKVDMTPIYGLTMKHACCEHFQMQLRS
Procedure: (§2) Where needed, total protein concentration in the reaction mixtures was adjusted using Control Bactosomes (Cypex), so all reactions (including those with the recombinant cytochrome P450s) were carried out at a total protein concentration of 0.25 mg protein/ml. […] Slopes of the linear part of the kinetic curves were calculated using Ascent Software version 2.4.1 (Labsystems). For each well with the reaction medium, there was a control well containing the reaction mixture with resorufin (40 pmol). Before addition of NADPH to the reaction wells, fluorescence was recorded both from the reaction and from the control wells. The average fluorescence was calculated, and the difference between wells with and without resorufin was used for the conversion of the relative fluorescence units to the picomoles of the reaction product.

recombinant human CYP1A2 [3] = target: T2, recombinant human CYP1A2 (Homo sapiens, UniProt P05177); experiment: MROD by recombinant human CYP1A2, inhibition by quinidine; conditions: quinidine 0, 30, 200 μM
T2 sequence (P05177 1-516): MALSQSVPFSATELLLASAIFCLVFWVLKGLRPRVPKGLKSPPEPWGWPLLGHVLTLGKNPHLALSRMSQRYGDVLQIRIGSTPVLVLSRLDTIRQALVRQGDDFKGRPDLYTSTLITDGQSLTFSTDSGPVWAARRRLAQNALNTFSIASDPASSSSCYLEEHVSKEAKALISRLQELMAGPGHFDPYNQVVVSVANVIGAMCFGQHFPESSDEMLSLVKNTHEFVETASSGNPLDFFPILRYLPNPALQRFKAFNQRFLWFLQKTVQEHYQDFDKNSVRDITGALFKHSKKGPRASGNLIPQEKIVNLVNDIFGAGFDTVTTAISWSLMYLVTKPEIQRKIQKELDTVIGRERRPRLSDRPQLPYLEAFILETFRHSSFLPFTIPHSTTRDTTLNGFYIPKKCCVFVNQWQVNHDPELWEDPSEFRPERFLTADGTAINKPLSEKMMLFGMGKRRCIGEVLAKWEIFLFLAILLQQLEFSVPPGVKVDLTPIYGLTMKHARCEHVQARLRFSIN
Procedure: (§3) Slopes of the linear part of the kinetic curves were calculated using Ascent Software version 2.4.1 (Labsystems).
as §2

recombinant human CYP1A2 [4] = target: T2, recombinant human CYP1A2; conditions: quinidine 0, 30, 200 μM
Procedure: as §1

recombinant human CYP1A1 [5] = target: T1, recombinant human CYP1A1; experiment: biochemical
Procedure: as §3, §2

[6] = tested on: MROD activity, non-Cyp1a component of the liver microsomes; experiment: in vitro; conditions: mouse, pH 7.4
Procedure: as §1

[7] = tested on: liver microsomes from vehicle-treated hCYP1A1/1A2 mice; experiment: MROD in liver microsomes from vehicle-treated hCYP1A1/1A2 mice with quinidine; assay type: biochemical, mouse; conditions: 200 μM quinidine
Procedure: as §1

recombinant human CYP1A1 [8] = target: T1, recombinant human CYP1A1; experiment: MROD by recombinant human CYP1A1, inhibition by quinidine; conditions: rCYP1A1
Procedure: as §3, §2

[9] = tested on: EROD activity of liver microsomes from vehicle-treated hCYP1A1/1A2 mice; experiment: EROD in liver microsomes from vehicle-treated hCYP1A1/1A2 mice with quinidine; assay type: biochemical; conditions: hCYP1A1/1A2 humanized, mouse, pH 7.4
Procedure: as §1

[10] = Microsomal stability in mouse liver microsomes (WT, Cyp1a KO, hCYP1A1/1A2)
Procedure: The reaction was started by addition of 200 μl of NADPH to the remaining mixture of ramelteon with microsomes, and 100-μl aliquots were taken at 1, 2, 5, 10, 15, 20, and 30 minutes after the reaction start; mixed with an equal volume of ice-cold methanol containing the internal standard; incubated on ice for at least 20 minutes; and centrifuged for 15 minutes at 16,000 rcf and +4°C on Centrifuge 5415 R (Eppendorf, Hamburg, Germany). Control incubations were carried out without the cofactor or microsomes. The concentration of ramelteon in the supernatant was measured by high-performance liquid chromatography–tandem mass spectrometry (MS/MS). Chromatographic separation was performed on a Prodigy Phenyl-3 column (5 μm, 50 × 2.0 mm; Phenomenex) using an injection volume of 10 μl and a run time of 7 minutes. Mobile phase consisted of 0.1% solutions of formic acid in water (solvent A) and acetonitrile (solvent B). For elution, a linear gradient from 20% to 60% of solvent B in 4 minutes was used, followed by 3-minute equilibration at 20% B. The multiple reaction monitoring parameters for ramelteon and tacrine were 260.28, 199.2 (precursor ion) and 204.21, 171.11 (product ion), respectively. The concentrations of ramelteon were calculated from the calibration curve.

[11] = hCYP1A1/1A2 mice, liver microsomes

SMILES: Clc1cc2c(cc1Cl)Oc1cc(Cl)c(Cl)cc1O2 [TCDD, 2,3,7,8-tetrachlorodibenzo-p-dioxin]
increase in MROD activity (Cyp1a/CYP1A enzymes; Cyp1a KO line, liver microsomes): 4.6 fold
increase in EROD activity relative to untreated animals (Cyp1a/CYP1A enzymes; Cyp1a KO liver): 3 fold
change in total P450 on TCDD treatment (Cyp1a/CYP1A enzymes; Cyp1a KO mice): no change
concentration of hepatic CYP1A1 estimated from EROD Vmax/kcat (Cyp1a/CYP1A enzymes; TCDD-treated hCYP1A1/1A2 mice): 59 pmol/mg microsomal protein
CYP1A enzymes as share of total hepatic P450 content after TCDD (Cyp1a/CYP1A enzymes; WT mice): 58%
increase of total hepatic cytochrome P450 (Cyp1a/CYP1A enzymes; WT mice): 2.37 fold
increase in EROD activity relative to untreated animals (Cyp1a/CYP1A enzymes; WT mice, liver microsomes): ~114 fold
increase in MROD activity (Cyp1a/CYP1A enzymes; WT mice, liver microsomes): 44 fold
total hepatic cytochrome P450 after TCDD (Cyp1a/CYP1A enzymes; WT mice, liver microsomes): 840 pmol/mg protein
CYP1A enzymes as share of total hepatic P450 content after TCDD (Cyp1a/CYP1A enzymes; hCYP1A1/1A2 mice): 46%
increase of total hepatic cytochrome P450 (Cyp1a/CYP1A enzymes; hCYP1A1/1A2 mice): 1.84 fold
increase in EROD activity relative to untreated animals (Cyp1a/CYP1A enzymes; [11]): 39 fold
increase in MROD activity (Cyp1a/CYP1A enzymes; [11]): 31 fold
total hepatic cytochrome P450 after TCDD (Cyp1a/CYP1A enzymes; [11]): 632 pmol/mg protein

Ki ([1]; Cyp1a KO): > 200 µM
Ki [1]: 422 ± 18 µM
Ki (recombinant human CYP1A1 [2]): 3.3 ± 0.35 µM
Quinidine Inhibition Type (recombinant human CYP1A1 [2]; EROD, rCYP1A1): Mixed
α (recombinant human CYP1A1 [2]; EROD, rCYP1A1, effect of inhibitor binding on substrate binding): 31 ± 8
inhibition of MROD activity catalyzed by CYP1A2 (recombinant human CYP1A2 [3]): did not inhibit
inhibition of EROD activity catalyzed by CYP1A2 (recombinant human CYP1A2 [4]): did not inhibit
IC50 (recombinant human CYP1A1 [5]): 5.8 µM
Ki (recombinant human CYP1A1 [5]): 2.2 ± 0.18 µM
Ki ([6]; Cyp1a KO): > 200 µM
Ki [6]: 272 ± 28 µM
effect on MROD [7]: not affected
Quinidine Inhibition Type (recombinant human CYP1A1 [8]): Competitive
inhibition at 200 μM [9]: ~20%
SMILES: C=C[C@H]1C[N@@]2CC[C@H]1C[C@@H]2[C@@H](O)c1ccnc2ccc(OC)cc12 [quinidine]

SMILES: Nc1c2c(nc3ccccc13)CCCC2 [tacrine]
fraction metabolized by Cyp1a2 ([10]; WT mice liver microsomes, eqs. 15 and 16): ~0.68
fraction metabolized by CYP1A2 ([10]; hCYP1A1/1A2, mouse, microsomes, 1 µM, pH 7.4): ~0.60

From PMC6657216, “Defining the Contribution of CYP1A1 and CYP1A2 to Drug Metabolism Using Humanized CYP1A1/1A2 and Cyp1a1/Cyp1a2 Knockout Mice” (Drug Metabolism and Disposition, 2019)
